These results are taken from ChEMBL document CHEMBL1201862, “PubChem BioAssay data set” (2004).

Values joined by “and” are separate entries in the source; they are usually repeats but may differ in a detail not shown here. Identical values can stand only once.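 All cell lines were grown in 96-well plates and treated with compound for 48 hours. GI50: concentration for 50% inhibition of growth.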 Active and inactive are the calls of the source. Rule as the data show it: active = GI50 up to about 1.1 µM and inactive = higher.

Some test systems named below: SK-MEL-28; HL-60; A498; RPMI-8226; SF-268; HCT-116; NCI-H23; MDA-MB-231; COLO 205; Hs-578T; DU-145; UO-31; NCI-H460; MOLT-4; A549; ACHN; SW-620; HCC 2998; SN12C.
What all share (experiment): NCI tumour cell line growth inhibition, 48 h

With `COc1ccc([C@]23CCN4COC[C@@H]([C@H]42)C2(CC3)OCC(C)(C)CO2)cc1OC`, the GI50 in the experiment on SK-MEL-28, in the experiment on HL-60, in the experiment on A498, in the experiment on RPMI-8226, in the experiment on SF-268 and in the experiment with HCT-116 was > 100 µM (inactive) each time. Moreover, the GI50 in the experiment with NCI-H23, in the experiment with MDA-MB-231, in the experiment on COLO 205, in the experiment with Hs-578T, in the experiment on DU-145 and in the experiment with UO-31 was > 100 µM (inactive) in each case. Further, the GI50 in the experiment with NCI-H460, with MOLT-4, in the experiment with A549, in the experiment with ACHN, in the experiment with SW-620 and with HCC 2998 was > 100 µM (inactive) in each case. For the same compound, in the experiment with SN12C, the GI50 is > 100 µM (inactive).
Turning to `C[C@H]1O[C@@H](O[C@H]2[C@@H](O)C[C@H](O[C@H]3[C@@H](O)C[C@H](O[C@H]4CC[C@@]5(C)[C@H](CC[C@@H]6[C@@H]5CC[C@]5(C)[C@@H](C7=CC(=O)OC7)[C@@H](O)C[C@]65O)C4)O[C@@H]3C)O[C@@H]2C)C[C@H](O)[C@@H]1O` [GITOXIN], the GI50 with SK-MEL-28 is 1.15 µM (inactive); in the experiment with HL-60 it was 0.116 µM (active); with A498, 0.237 µM (active); in the experiment on RPMI-8226 it was 0.197 µM (active); with SF-268 it was 0.152 µM (active); with HCT-116 it was 0.127 µM (active). In addition, the GI50 is 0.0869 µM (active) with NCI-H23; 1.2 µM (inactive) in the experiment on MDA-MB-231; 0.798 µM (active) with COLO 205; 0.562 µM (active) in the experiment with Hs-578T; 0.0822 µM (active) in the experiment on DU-145; 0.219 µM (active) with UO-31. Besides, the GI50 in the experiment with NCI-H460 was 0.132 µM (active); with MOLT-4, 0.0277 µM (active); in the experiment with A549 it was 0.0719 µM (active); in the experiment on ACHN, 0.0948 µM (active); in the experiment with SW-620, 0.258 µM (active); with HCC 2998, 4.19 µM (inactive). For the same compound, in the experiment on SN12C, the GI50 is 0.164 µM (active).
With `CCn1c(SCC(=O)NNC(=S)Nc2ccc([N+](=O)[O-])cc2)nc2ccccc2c1=O`, the GI50 in the experiment with SK-MEL-28 was 57.5 µM (inactive); with HL-60, 40.7 µM (inactive); in the experiment with A498, 48.2 µM (inactive); in the experiment with RPMI-8226, 29.9 µM (inactive); with SF-268 it was 60.1 µM (inactive); in the experiment with HCT-116, 35.3 µM (inactive). Besides, the GI50 in the experiment with NCI-H23 was 62.5 µM (inactive); in the experiment with MDA-MB-231, > 100 µM (inactive); with COLO 205, 47.5 µM (inactive); in the experiment on Hs-578T it was > 100 µM (inactive); in the experiment with DU-145, > 100 µM (inactive); in the experiment with UO-31 it was 39.5 µM (inactive). In addition, the GI50 in the experiment with NCI-H460 was 48.8 µM (inactive); in the experiment with MOLT-4, 23.2 µM (inactive); in the experiment with A549 it was > 100 µM (inactive); in the experiment with ACHN, > 100 µM (inactive); in the experiment on SW-620, 86.5 µM (inactive); in the experiment with HCC 2998 it was 50.1 µM (inactive). In addition, in the experiment with SN12C, the GI50 is 50.9 µM (inactive).
In the case of `CN(CCc1ccc(Cl)c(Cl)c1)CCN(C)CCN1CCCC1`, the GI50 with SK-MEL-28 was 1.64 µM (inactive); with HL-60 it was 13.4 µM (inactive); in the experiment with A498, 13.1 µM (inactive); in the experiment with RPMI-8226, 2.86 µM (inactive); with SF-268, 6.5 µM (inactive); in the experiment with HCT-116, 5.62 µM (inactive). Besides, the GI50 is 14.2 µM (inactive) in the experiment on NCI-H23; 8.99 µM (inactive) in the experiment with MDA-MB-231; 2.23 µM (inactive) in the experiment on COLO 205; 17.5 µM (inactive) in the experiment on Hs-578T; 25.6 µM (inactive) with DU-145; 5.15 µM (inactive) in the experiment with UO-31. The GI50 is 8.93 µM (inactive) with NCI-H460; 3.6 µM (inactive) with MOLT-4; 10.5 µM (inactive) in the experiment on A549; 21.2 µM (inactive) in the experiment on ACHN; 12.1 µM (inactive) in the experiment with SW-620; 1.96 µM (inactive) with HCC 2998. The GI50 with SN12C is 15.7 µM (inactive).
For `O=C1N/C(=N/N=C\C(O)C(O)C(O)C(O)CO)N/C1=C/c1ccc(Cl)cc1` (stereo not given), the GI50 in the experiment with SK-MEL-28 is > 100 µM (inactive); with HL-60 it was 14.4 µM (inactive) and 23.8 µM (inactive); in the experiment on A498, > 100 µM (inactive); with RPMI-8226, > 100 µM (inactive); in the experiment on SF-268, > 100 µM (inactive) and 98.2 µM (inactive); in the experiment on HCT-116, > 100 µM (inactive). For the same compound, the GI50 in the experiment on NCI-H23, in the experiment on MDA-MB-231, in the experiment on COLO 205, in the experiment with Hs-578T, in the experiment on DU-145 and in the experiment on UO-31 was > 100 µM (inactive) in each case. Besides, the GI50 in the experiment on NCI-H460 is > 100 µM (inactive); with MOLT-4 it was 46 µM (inactive) and > 10 µM (inactive); in the experiment with A549, > 100 µM (inactive); with ACHN it was > 100 µM (inactive); with SW-620, > 100 µM (inactive); in the experiment on HCC 2998, 95.7 µM (inactive) and 99.3 µM (inactive). Also, the GI50 with SN12C was > 100 µM (inactive).
Take `CCOC(=O)n1cncc1CC(NC(=O)Cc1c(C(=O)C=C(C)C)[nH]c2ccccc12)C(=O)OC` (stereo not given): the GI50 in the experiment on SK-MEL-28 was 16 µM (inactive); in the experiment on HL-60 it was 18 µM (inactive); in the experiment with A498 it was 24.9 µM (inactive); in the experiment with RPMI-8226, 32.5 µM (inactive); in the experiment on SF-268, 18 µM (inactive); in the experiment with HCT-116, 27.9 µM (inactive). For the same compound, the GI50 with NCI-H23 was 25.4 µM (inactive); in the experiment with MDA-MB-231 it was 15.5 µM (inactive); with COLO 205 it was 18.1 µM (inactive); in the experiment with Hs-578T, 19.3 µM (inactive); in the experiment with DU-145, 18.5 µM (inactive); with UO-31 it was 15.7 µM (inactive). For the same compound, the GI50 in the experiment on NCI-H460 was 22.3 µM (inactive); in the experiment on MOLT-4 it was 20 µM (inactive); with A549, 19.2 µM (inactive); with ACHN, 19.3 µM (inactive); in the experiment on SW-620 it was 25.7 µM (inactive); in the experiment on HCC 2998, 13.9 µM (inactive). Moreover, in the experiment on SN12C, the GI50 was 16.3 µM (inactive).
As for `Brc1c2c(c(Br)c3nsnc13)N=S=N2`, the GI50 is 37.5 µM (inactive) with SK-MEL-28; 3.83 µM (inactive) in the experiment with HL-60; 42.6 µM (inactive) in the experiment on A498; 22 µM (inactive) in the experiment on RPMI-8226; 26.3 µM (inactive) with SF-268; 27.4 µM (inactive) with HCT-116. For the same compound, the GI50 was 23.3 µM (inactive) with NCI-H23; 23.4 µM (inactive) in the experiment on MDA-MB-231; 41.5 µM (inactive) with COLO 205; 21 µM (inactive) in the experiment with Hs-578T; > 87.1 µM (inactive) in the experiment on DU-145; 22.8 µM (inactive) with UO-31. Further, the GI50 was 25.3 µM (inactive) with NCI-H460; 17.9 µM (inactive) with MOLT-4; 78.5 µM (inactive) with A549; 24.7 µM (inactive) with ACHN; 29 µM (inactive) in the experiment with SW-620; > 58.6 µM (inactive) in the experiment with HCC 2998. For the same compound, the GI50 in the experiment on SN12C is 17.4 µM (inactive).
For `COC(=O)[C@@H]1CN(C(=O)c2ccccc2)C(=O)N1C(=O)OCc1ccccc1`, the GI50 in the experiment on SK-MEL-28, with HL-60, in the experiment with A498, in the experiment with RPMI-8226, in the experiment with SF-268 and in the experiment on HCT-116 was > 100 µM (inactive) throughout. Besides, the GI50 in the experiment on NCI-H23, with MDA-MB-231, with COLO 205, in the experiment on Hs-578T, in the experiment on DU-145 and with UO-31 was > 100 µM (inactive) each time. Besides, the GI50 in the experiment on NCI-H460, with MOLT-4, in the experiment on A549, in the experiment with ACHN, in the experiment on SW-620 and with HCC 2998 was > 100 µM (inactive) throughout. Further, the GI50 in the experiment on SN12C was > 100 µM (inactive).
On to `COc1ccc(/C=N/NS(=O)(=O)c2ccc(/C=C3\NC(=O)NC3=O)cc2)cc1`, for which the GI50 in the experiment with SK-MEL-28 was > 100 µM (inactive); with HL-60, 98.6 µM (inactive); in the experiment with A498, > 100 µM (inactive); with RPMI-8226, > 100 µM (inactive); with SF-268, 28.1 µM (inactive); in the experiment with HCT-116, > 100 µM (inactive). Moreover, the GI50 with NCI-H23 was > 100 µM (inactive); in the experiment on MDA-MB-231, 11.2 µM (inactive); in the experiment with COLO 205 it was > 100 µM (inactive); in the experiment on Hs-578T it was 28.1 µM (inactive); in the experiment on DU-145, > 100 µM (inactive); in the experiment with UO-31 it was > 100 µM (inactive). For the same compound, the GI50 in the experiment with NCI-H460, in the experiment with MOLT-4, with A549, in the experiment on ACHN, in the experiment on SW-620 and in the experiment on HCC 2998 was > 100 µM (inactive) in each case. The GI50 with SN12C was > 100 µM (inactive).
As to `Cc1ccc(C(=O)Nc2ccc(CP(=O)(O)O)cc2CP(=O)(O)O)cc1NC(=O)c1cccc(NC(=O)Nc2cccc(C(=O)Nc3cc(C(=O)Nc4ccc(CP(=O)(O)O)cc4CP(=O)(O)O)ccc3C)c2)c1`, the GI50 with SK-MEL-28, in the experiment with HL-60, in the experiment with A498, in the experiment with RPMI-8226, with SF-268 and in the experiment on HCT-116 was > 100 µM (inactive) in each case. The GI50 in the experiment with NCI-H23, in the experiment on MDA-MB-231, in the experiment on COLO 205, with Hs-578T, with DU-145 and in the experiment on UO-31 was > 100 µM (inactive) in each case. Further, the GI50 is > 100 µM (inactive) in the experiment on NCI-H460; > 100 µM (inactive) in the experiment with MOLT-4; > 100 µM (inactive) with A549; > 100 µM (inactive) in the experiment on ACHN; 41.8 µM (inactive) in the experiment with SW-620; > 100 µM (inactive) in the experiment on HCC 2998. Moreover, the GI50 in the experiment on SN12C is > 100 µM (inactive).
